What all share (format): biochemical
One assay concerns the target CAMK1 (Homo sapiens, UniProt Q14012). As to the kind of experiment: radiometric kinase panel, single dose […], duplicate. As to conditions: read-out: % remaining activity at 500 nM.
Another assay concerns the target T1, Aurora B (Homo sapiens, UniProt Q96GD4).
T1 construct: gene AURKB
The description is as above. The settings on record: read-out: % remaining activity at 500 nM.

The target of assay [1] is T2, Tropomyosin receptor kinase A (TrkA) (Homo sapiens, UniProt P04629).
T2 construct: gene NTRK1
As to the kind of experiment: radiometric [γ-33P]ATP kinase assay, poly(Glu,Tyr) substrate, dose-response.

Our source for the remaining activity and IC50 values is PMC6836411, “Identification and characterization of the Cucurbitacins, a novel class of small-molecule inhibitors of Tropomyosin receptor kinase a” (BMC Complementary and Alternative Medicine, 2019).

A word on the remaining activity: it is what remains of the control signal, in per cent. The IC50 is the midpoint of a concentration-inhibition curve.

T2 sequence (P04629 441-796 limits assumed): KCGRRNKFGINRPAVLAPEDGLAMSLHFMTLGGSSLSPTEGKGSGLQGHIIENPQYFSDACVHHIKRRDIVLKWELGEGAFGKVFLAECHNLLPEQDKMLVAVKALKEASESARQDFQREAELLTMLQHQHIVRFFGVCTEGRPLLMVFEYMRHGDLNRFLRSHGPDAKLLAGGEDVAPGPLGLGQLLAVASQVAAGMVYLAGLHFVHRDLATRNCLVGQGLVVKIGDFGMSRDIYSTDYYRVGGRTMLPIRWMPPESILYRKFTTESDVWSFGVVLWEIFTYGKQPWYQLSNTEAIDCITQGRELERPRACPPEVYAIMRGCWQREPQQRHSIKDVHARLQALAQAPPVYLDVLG
T1 sequence (Q96GD4 whole entry): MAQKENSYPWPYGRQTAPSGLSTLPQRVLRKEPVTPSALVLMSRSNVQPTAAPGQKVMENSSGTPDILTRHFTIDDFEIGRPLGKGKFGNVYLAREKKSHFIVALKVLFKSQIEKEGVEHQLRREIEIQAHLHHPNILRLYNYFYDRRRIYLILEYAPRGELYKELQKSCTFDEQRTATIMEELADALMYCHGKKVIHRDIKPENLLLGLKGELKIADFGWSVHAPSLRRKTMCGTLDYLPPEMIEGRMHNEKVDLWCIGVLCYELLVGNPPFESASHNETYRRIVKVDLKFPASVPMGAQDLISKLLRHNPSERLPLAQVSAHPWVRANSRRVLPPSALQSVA
Chain of CAMK1 (Q14012 whole entry): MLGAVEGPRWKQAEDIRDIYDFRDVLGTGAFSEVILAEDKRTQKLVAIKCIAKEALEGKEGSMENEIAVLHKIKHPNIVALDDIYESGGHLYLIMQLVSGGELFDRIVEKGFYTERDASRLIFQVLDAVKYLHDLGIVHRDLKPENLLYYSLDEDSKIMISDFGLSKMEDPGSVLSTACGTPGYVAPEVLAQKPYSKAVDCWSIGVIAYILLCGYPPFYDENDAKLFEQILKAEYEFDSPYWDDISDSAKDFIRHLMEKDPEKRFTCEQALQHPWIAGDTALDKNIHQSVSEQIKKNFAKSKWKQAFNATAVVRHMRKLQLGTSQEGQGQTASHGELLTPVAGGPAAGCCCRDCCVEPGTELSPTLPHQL

`CC(=O)OC(C)(C)/C=C/C(=O)[C@](C)(O)[C@H]1[C@H](O)C[C@@]2(C)[C@@H]3CC=C4[C@@H](C[C@H](O)C(=O)C4(C)C)[C@]3(C)C(=O)C[C@]12C` [CuB, Cucurbitacin B]: the remaining activity at 0.5 µM at CAMK1 worked out at 12.9 ± 3.7%; on Aurora B, 23.2 ± 2.8%. Also, in assay [1], the half-inhibitory concentration (IC50) was 178 nM.

`CC(=O)OC(C)(C)/C=C/C(=O)[C@](C)(O)[C@H]1[C@H](O)C[C@@]2(C)[C@@H]3CC=C4[C@@H](C=C(O)C(=O)C4(C)C)[C@]3(C)C(=O)C[C@]12C` [CuE, Cucurbitacin E] showed an IC50 in assay [1] of 549 nM. This lies in the sub-micromolar range.

Compound `CC(C)(O)/C=C/C(=O)[C@](C)(O)[C@H]1[C@H](O)C[C@@]2(C)[C@@H]3CC=C4[C@@H](C=C(O)C(=O)C4(C)C)[C@]3(C)C(=O)C[C@]12C` [CuI, Cucurbitacin I] yielded a 50% inhibitory concentration (IC50) in assay [1] of 959 nM.
